The results in this text go back to US11000509B2, “Methods and compositions for daily ophthalmic administration of phentolamine to improve visual performance” (Ocuphire Pharma, Inc., priority 2013, dated 2021).

Counter-ions that a name gives are not always drawn.

Assay type in all cases: in vivo, humans
For series [1], the system named is eyes of patients suffering from severe night vision difficulty. In words: Example 1 clinical study: mesopic contrast sensitivity with glare, Holladay Automated Contrast Sensitivity System. Particulars: for percentage of eyes with at least a 50% improvement in contrast sensitivity relative to baseline: 0.5% or 1.0% (w/v) once daily, beginning with day 8. The source says:
(§1) Sixty patients with normal day vision (i.e., 20/40 or better) but which suffer from severe night vision difficulty were enrolled in the study. During the first period of the study, patients were randomized into three groups. The groups received either placebo, 0.5% (w/v) phentolamine mesylate, or 1.0% (w/v) phentolamine mesylate once daily for 15 days. The patients were observed on days 1, 4, 8, and 15 prior to administering the ophthalmic solution of phentolamine mesylate and then observed again two hours after the ophthalmic solution of phentolamine mesylate was administered. During the second period of the study, all sixty patients were instructed to administer an ophthalmic solution of phentolamine mesylate (1% (w/v)) as needed, but no more than once daily to each eye. The ophthalmic solution of phentolamine mesylate contained: 1% (w/v) phentolamine mesylate, 4% (w/v) mannitol, 3 mM sodium acetate, and water. The placebo was a solution containing 4% (w/v) mannitol, 3 mM sodium acetate, and water.
Patients in the study satisfied the following criteria: (1) 18-45 years of age and suffer from severe night vision difficulty, (2) 0.3 log improvement at two of five spatial frequencies (1.5, 3, 6, 12, and 18 cycles per degree) in at least one eye before and during illumination of the contralateral eye, using the Holladay Automated Contrast Sensitivity System test under mesopic room illumination with glare, and (3) photopic distance high-contrast visual acuity (corrected or uncorrected) of 20/40 or better in at least one eye.
Patients were to meet with a clinician for evaluation on study days 1, 4, 8, 15, and a post-dosing follow-up evaluation three or more days after administering the last dose in the second period. When patients met with the clinician, the following observations were made by the clinician: (1) mesopic contrast sensitivity with and without glare using the Holladay Automated Contrast Sensitivity System test, (2) mesopic distance high-contrast visual acuity using E-ETDRS Acuity Testing, (3) mesopic distance low-contrast visual acuity using E-ETDRS Acuity Testing, (4) photopic distance high-contrast visual acuity using E-ETDRS Acuity Testing, and (5) eye redness using the Cornea and Contact Lens Research Unit (CCLRU) Redness Grading Scale developed by the School of Optometry, University of New South Wales, but that the grading scale was as follows: (0) none, (0.5) very slight, (1) slight, (2) moderate, and (3) severe.
The primary efficacy endpoint is an increase of at least 0.3 log (50% or more improvement) in mesopic contrast sensitivity with glare at two or more frequencies at 1.5, 3, 6, 12, and 18 cycles per degree, measured with Holladay Automated Contrast Sensitivity System methodology.

Series [2] has the same test system. In words: Example 1 clinical study: eye redness, CCLRU Redness Grading Scale regraded 0, 0.5, 1, 2, 3.
Source text: as §1, with “The patients were observed on days 1, 4, 8, and 15 prior to administering the ophthalmic solution of phentolamine mesylate and then observed again two hours after the ophthalmic solution of phentolamine mesylate was administered.” left out
Patients were to meet with a clinician for evaluation on study days 1, 4, 8, 15, and a post-dosing follow-up evaluation three or more days after administering the last dose in the second period. […]

The test system is the same in series [3]. As to the kind of experiment: Example 1 clinical study: reduction in pupil diameter. Particulars: from percentage of eyes with at least 10% reduction in pupil diameter after the last dose, second period, 1% (w/v) (FIG. 4B).
Source text: as §1

`Cc1ccc(N(CC2=NCCN2)c2cccc(O)c2)cc1` [Phentolamine Mesylate, phentolamine mesylate]: the “percentage of eyes with at least a 50% improvement in contrast sensitivity relative to baseline” value in series [1] (tested prior to that day's dose (FIG. 2)) and in series [1] (tested two hours after that day's dose (FIG. 1)) was “greater than 20%” throughout. Moreover, the pharmacokinetic half-life result in series [1] (from percentage of eyes with at least 50% improvement in contrast sensitivity after the last dose, second period, 1% (w/v) (FIG. 4A)) was “approximately two”; in series [3], “approximately two”. Further, in series [1] (measured prior to that day's administration, from day 15 to day 32 (FIG. 3)), the “percentage of eyes with at least a 50% improvement in contrast sensitivity, change over time” value was “increased”. For the same molecule, the “efficacy with repeated dosing (contrast sensitivity)” value in series [1] (once daily during the 15-day study period (FIGS. 1 and 2)) is “no diminution in efficacy was observed”. Moreover, the eye redness entry in series [2] (immediately after administration (FIG. 5)) is “increases”; in series [2] (measured prior to administration on days 4, 8, and 15 (FIG. 5)), “returns to baseline”.
